Each structure is given as a SMILES string. A value given as a limit tells only on which side of the number the result lay.

Consider 20 molecules from patent US8367695B2, “Condensed tetrahydroquinoline derivative and use thereof for medical purposes” (Mitsubishi Tanabe Pharma Corporation, priority 2007, dated 2013).

One test has as its target T1, human recombinant progesterone receptor-B (PRB) (Homo sapiens, UniProt P06401).
T1 construct: purchased Invitrogen (Carlsbad, Calif.)
T1 sequence (P06401 1-933): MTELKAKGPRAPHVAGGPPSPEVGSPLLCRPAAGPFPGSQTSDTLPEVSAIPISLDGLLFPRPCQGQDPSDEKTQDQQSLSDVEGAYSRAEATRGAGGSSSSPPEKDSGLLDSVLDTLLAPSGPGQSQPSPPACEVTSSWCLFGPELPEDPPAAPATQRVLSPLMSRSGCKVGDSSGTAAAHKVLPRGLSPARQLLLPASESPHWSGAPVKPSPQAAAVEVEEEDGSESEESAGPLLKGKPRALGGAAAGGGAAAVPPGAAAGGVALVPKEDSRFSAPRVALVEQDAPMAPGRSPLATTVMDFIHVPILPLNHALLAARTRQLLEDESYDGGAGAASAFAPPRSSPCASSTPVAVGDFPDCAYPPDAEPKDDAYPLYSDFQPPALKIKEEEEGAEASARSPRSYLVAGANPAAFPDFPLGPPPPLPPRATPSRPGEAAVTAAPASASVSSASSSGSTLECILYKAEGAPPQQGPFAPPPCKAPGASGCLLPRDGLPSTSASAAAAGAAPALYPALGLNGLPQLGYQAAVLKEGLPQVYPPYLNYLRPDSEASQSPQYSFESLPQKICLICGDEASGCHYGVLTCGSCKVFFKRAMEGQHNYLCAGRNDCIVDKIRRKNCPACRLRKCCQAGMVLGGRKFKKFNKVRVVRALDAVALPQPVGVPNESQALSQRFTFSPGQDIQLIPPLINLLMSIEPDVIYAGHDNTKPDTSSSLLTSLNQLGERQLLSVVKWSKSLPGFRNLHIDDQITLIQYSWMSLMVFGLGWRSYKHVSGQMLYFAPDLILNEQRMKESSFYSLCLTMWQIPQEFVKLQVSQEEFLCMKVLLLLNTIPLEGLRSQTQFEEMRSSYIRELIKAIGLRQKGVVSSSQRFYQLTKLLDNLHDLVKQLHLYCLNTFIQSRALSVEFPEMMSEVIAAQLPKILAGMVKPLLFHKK
Briefly: Radioactive ligand binding test, PRB cytosol, [3H]-Prog.
Details: not given
From the text: Radioactive Ligand Binding Test Using Cytosols of Human Glucocorticoids Receptor, Progesterone Receptor and Mineralocorticoid Receptor
The procedures described in Neuroimmunomodulation (1994, 1, p. 66-73) and Invest. Opthalmol. Vis. Sci. (1996, 37, p. 805-813) were modified and used. In brief, cytosol preparations of human recombinant glucocorticoids receptor (GR) and human recombinant progesterone receptor-B (PRB) were purchased from Invitrogen (Carlsbad, Calif.), and a cytosol preparation of human recombinant mineralocorticoid receptor (MR) was prepared by our company (Yokohama, JP). MR cDNA was cloned into a baculovirus expression vector and expressed in insect cell Sf9. The procedures described in J. Biol. Chem. (1991, 266, p. 18072-18081), Proc. Natl. Acad. Sci. USA (1991, 88, p. 10681-10685) and Bac-to-Bac (registered trade mark) Baculovirus Expression Systems technical manual (Invitrogen) were partly modified and used as the procedures for MR gene cloning up to preparation of recombinant receptor cytosol. [^3H]-Dexamethasone (Dex, specific activity 91.0 Ci/mmol) was purchased from GE Healthcare (Buckinghamshire, UK), and [^3H]-progesterone (Prog, specific activity 103 Ci/mmol) and [3H]-aldosterone (Ald, specific activity 87.9 Ci/mmol) were each purchased from PerkinElmer (Boston, Mass.). Polypropylene round-bottomed 96 well plate was obtained from ABgene (Epsom, UK). Dimethyl Sulfoxide (DMSO) and hydrochloric acid were obtained from Kanto Chemical (TOKYO, JP). Trizma Base (Tris), Bovine Serum Albumin (BSA) and Sodium tungstate dihydrate were obtained from Sigma Chemicals (St. Louis, Mo.). Dithiothreitol (DTT) and Dextran 70 were obtained from GE Healthcare (Buckinghamshire, UK). Glycerol was obtained from Junsei Chemical (TOKYO, JP). Norit® “SX-II” was obtained from Wako Pure Chemical Industries, Ltd. (Osaka, JP). MeltiLex™, A, Printed Filtermat A and Sample Bag were obtained from PerkinElmer (Boston, Mass.).
As a buffer for GR binding assay, 25 mM Tris-HCl (4° C., pH 7.4)/1 mM EDTA·2Na/1 mM DTT/0.1% BSA was prepared and used. As buffers for PRB and MR binding assay, 10 mM Tris-HCl (4° C., pH 7.4)/1 mM DTT/0.1% BSA/10% glycerol and 20 mM Tris-HCl (4° C., pH 7.4)/1 mM EDTA·2Na/10% glycerol/20 mM sodium tungstate were respectively prepared and used. As dextran-coated charcoal (DCC) for B/F separation, 0.75% Dextran 70/0.75% Norit® SX-II/10 mM Tris-HCl (4° C., pH 7.4) was prepared and used.
Compound storage solutions (5-20 mM) were prepared using DMSO. The storage solutions were diluted with DMSO to 0.1 mM (for GR) and 0.3 mM (for PRB and MR), and further diluted 20-fold with distilled water to give solutions. Then, the preparations were diluted to each concentration with 5% DMSO solution. 1% DMSO was present at the time of the binding assay.
In the case of PRB binding assay, [^3H]-Prog (about 5 nM), PRB cytosol (concentration of function receptor: about 4 pmol/mL), a test compound and a binding buffer were mixed in a total volume of 50 μL, and the mixture was stood at 4° C. for 30 min or longer. A specific binding was defined to be the difference in the [^3H]-Prog binding between the presence and the absence of 1 μM unlabeled Prog.
After the reaction, 50 μL of DCC was added to each well and blended. Thereafter, the mixture was stood at 4° C. for 10 min. The plate was applied to high-speed cooling centrifuge under the conditions of 4° C., 2000 rpm, 5 min to perform B/F separation. A given amount of the supernatant was recovered, which was spotted on Filtermat A of 96 well format (PerkinElmer) and rapidly dried at a high temperature. Then, solid scintillator MeltiLex A (PerkinElmer) was melted on Filtermat A. The mixture was placed in a Sample Bag (PerkinElmer), and the level of radioactivity was measured by plate reader 1450 Micro Beta TRILUX (PerkinElmer).
Measurement of Inhibition Constant (Ki)
Take `C=CCC1(C)C(=O)C(C)(C)Nc2c1cc(-c1cccc3cc[nH]c13)c1c2OCO1` (centres unmarked) [Example 78, 6-allyl-4-(1H-indol-7-yl)-6,8,8-trimethyl-6,7,8,9-tetrahydro-[1,3]dioxolo[4,5-h]quinolin-7-one]: the inhibitory constant (Ki) (commonly a dissociation constant, usually derived from enzyme kinetics or from competition with a known ligand) is more than 1250 nM.

`CC1(C)Nc2c(cc(-c3cccc4nncn34)c3c2CCC3)C(C)(C)C1=O` [Example 17, 2,2,4,4-tetramethyl-6-([1,2,4]triazolo[4,3-a]pyridin-5-yl)-2,3,4,7,8,9-hexahydro-1H-cyclopenta[h]quinolin-3-one]: the Ki was more than 1250 nM.

The same test, now with this note: [3H]-Prog about 5 nM, PRB cytosol, 4° C.; Cheng-Prusoff, Kd about 3.5 nM; read-out: PR (Ki: nM).
`CC1(C)Nc2c(cc(-c3cccc4ncccc34)c3c2CCC3)C(C)(C)C1=O` [Example 20, 2,2,4,4-tetramethyl-6-(quinolin-5-yl)-2,3,4,7,8,9-hexahydro-1H-cyclopenta[h]quinolin-3-one]: the Ki was more than 1250 nM. Consider `CC1(C)Nc2c(cc(-c3cccc4nccn34)c3c2CCO3)C(C)(C)C1=O` [Example 88, 6-(imidazo[1,2-a]pyridin-5-yl)-2,2,4,4-tetramethyl-1,2,3,4,8,9-hexahydro-furo[2,3-h]quinolin-3-one], for which the Ki is more than 1250 nM.

For the molecule `CC#CCC1(C)C(=O)C(C)(C)Nc2c1cc(-c1cccc3nccn13)c1c2CCC1` (centres unmarked) [Example 63, 4-(2-butynyl)-6-(imidazo[1,2-a]pyridin-5-yl)-2,2,4-trimethyl-2,3,4,7,8,9-hexahydro-1H-cyclopenta[h]quinolin-3-one], the Ki was more than 1250 nM. As to `Cc1noc(C)c1-c1cc2c(c3c1CCC3)NC(C)(C)C(=O)C2(C)C` [Example 2, 6-(3,5-dimethylisoxazol-4-yl)-2,2,4,4-tetramethyl-2,3,4,7,8,9-hexahydro-1H-cyclopenta[h]quinolin-3-one], the Ki is more than 1250 nM. For the molecule `CCC1(C)C(=O)C(C)(C)Nc2c1cc(-c1cccc3nccn13)c1c2CCC1` (centres unmarked) [Example 58, 4-ethyl-6-(imidazo[1,2-s]pyridin-5-yl)-2,2,4-trimethyl-2,3,4,7,8,9-hexahydro-1H-cyclopenta[h]quinolin-3-one], the inhibition constant (Ki) came out at 1010 nM.

Regarding `CC1(C)Nc2c(cc(-c3ccnc4ncccc34)c3c2CCO3)C(C)(C)C1=O` [Example 92, 2,2,4,4-tetramethyl-6-([1,8]naphthyridin-4-yl)-1,2,3,4,8,9-hexahydro-furo[2,3-h]quinolin-3-one], the Ki is more than 1250 nM.

For the molecule `Cc1onc(CO)c1-c1cc2c(c3ccoc13)NC(C)(C)C(=O)C2(C)C` [Example 94, 6-(3-hydroxymethyl-5-methylisoxazol-4-yl)-2,2,4,4-tetramethyl-1,2,3,4-tetrahydro-furo[2,3-h]quinolin-3-one], the Ki was more than 1250 nM. Same read-out and setting: in the case of `CC1(C)Nc2c(cc(-c3cccc4nccn34)c3occc23)C(C)(C)C1=O` [Example 98, 6-(imidazo[1,2-a]pyridin-5-yl)-2,2,4,4-tetramethyl-1,2,3,4-tetrahydro-furo[2,3-h]quinolin-3-one] it was 1050 nM.

For `Cc1noc(C)c1-c1cc2c(c3c1OCC3)NC(C)(C)C(=O)C2(C)C` [Example 84, 6-(3,5-dimethylisoxazol-4-yl)-2,2,4,4-tetramethyl-1,2,3,4,8,9-hexahydro-furo[2,3-h]quinolin-3-one], the Ki was more than 1250 nM. In the case of `Cc1noc(C)c1-c1cc2c(c3c1OCO3)NC(C)(C)C(=O)C2(C)C` [Example 69, 4-(3,5-dimethylisoxazol-4-yl)-6,6,8,8-tetramethyl-6,7,8,9-tetrahydro-[1,3]dioxolo[4,5-h]quinolin-7-one], the Ki is more than 1250 nM. Still for that read-out and setting: in the case of `C=CCC1(C)C(=O)C(C)(C)Nc2c1cc(-c1c(C)noc1C)c1c2CCC1` (centres unmarked) [Example 51, 4-allyl-6-(3,5-dimethylisoxazol-4-yl)-2,2,4-trimethyl-2,3,4,7,8,9-hexahydro-1H-cyclopenta[h]quinolin-3-one] it was more than 1250 nM; in that of `Cc1nnn(C)c1-c1cc2c(c3c1CCC3)NC(C)(C)C(=O)C2(C)C` [Example 4, 6-(3,5-dimethyl-3H-[1,2,3]triazol-4-yl)-2,2,4,4-tetramethyl-2,3,4,7,8,9-hexahydro-1H-cyclopenta[h]quinolin-3-one], more than 1250 nM. Consider `CC1(C)Nc2c(cc(-c3ccnc4ncccc34)c3c2CCC3)C(C)(C)C1=O` [Example 21, 2,2,4,4-tetramethyl-6-([1,8]naphthyridin-4-yl)-2,3,4,7,8,9-hexahydro-1H-cyclopenta[h]quinolin-3-one], for which the Ki was more than 1250 nM. With `Cc1noc(C)c1-c1cc2c(c3c1C(=O)CC3)NC(C)(C)C(=O)C2(C)C` [Example 104, 6-(3,5-dimethylisoxazol-4-yl)-2,2,4,4-tetramethyl-2,3,4,7,8,9-hexahydro-1H-cyclopenta[h]quinoline-3,7-dione], the Ki is more than 1250 nM.

Regarding `CC1(C)Nc2c(cc(-c3cncc4nccn34)c3occc23)C(C)(C)C1=O` [Example 100, 6-(imidazo[1,2-a]pyrazin-5-yl)-2,2,4,4-tetramethyl-1,2,3,4-tetrahydro-furo[2,3-h]quinolin-3-one], the Ki was more than 1250 nM.

Take `C=C1C(C)(C)Nc2c(cc(-c3c(C)ncn3C)c3c2CCC3)C1(C)C` [Example 29, 6-(3,5-dimethyl-3H-imidazol-4-yl)-2,2,4,4-tetramethyl-3-methylene-2,3,4,7,8,9-hexahydro-1H-cyclopenta[h]quinoline]: the Ki was more than 1250 nM.

On to `CC1(C)Nc2c(cc(-c3cccc4nccn34)c3c2OC(F)(F)O3)C(C)(C)C1=O` [Example 82, 2,2-difluoro-4-(imidazo[1,2-a]pyridin-5-yl)-6,6,8,8-tetramethyl-6,7,8,9-tetrahydro-[1,3]dioxolo[4,5-h]quinolin-7-one], for which the Ki was more than 1250 nM. As for `CC1(C)Nc2c(cc(-c3cccc4nccn34)c3c2CCC3)C(C)(C)C1=O` [Example 14, 6-(imidazo[1,2-a]pyridin-5-yl)-2,2,4,4-tetramethyl-2,3,4,7,8,9-hexahydro-1H-cyclopenta[h]quinolin-3-one], the Ki was more than 1250 nM.
